The values below come from patent US20250340551A1, “SMALL MOLECULE MODULATORS OF STAT6” (Gilead Sciences, Inc., priority 2024, published 2025).

Each structure is given as a SMILES string.

The target of the test is human STAT6 (Homo sapiens (Human), UniProt P42226). The test can be described thus: Surface plasmon resonance assay (Biacore 8K, binding to immobilized STAT6). As to conditions: human STAT6 aa122-658, N-terminal His-tag, CM5 chip, 25° C.; geometric mean; read-out: STAT6 SPR Kd. The protocol: Biacore instruments from the 8K-series (Cytiva) were used, and measurements were performed at 25° C. Human STAT6 (truncated, aa122-658, with N-terminal His-tag, expressed in insect cells) was immobilized in the active flow cells on a CM5 chip using amine-coupling (default settings) at 10 μg/ml in 10 mM acetate buffer pH 5.5, at a contact time of 120-420 sec. and a flow rate of 10 μl/min. Reference flow cells were deactivated using blank immobilization. PBS-P+ (Cytiva) supplemented with 2% DMSO was used as running buffer, and solvent correction was applied. Compounds were tested by multi-cycle kinetics injections using a contact time of 60 sec., dissociation time of up to 300 sec., and a flow rate of 30 μl/min.
Sequence of human STAT6 (P42226 122-658): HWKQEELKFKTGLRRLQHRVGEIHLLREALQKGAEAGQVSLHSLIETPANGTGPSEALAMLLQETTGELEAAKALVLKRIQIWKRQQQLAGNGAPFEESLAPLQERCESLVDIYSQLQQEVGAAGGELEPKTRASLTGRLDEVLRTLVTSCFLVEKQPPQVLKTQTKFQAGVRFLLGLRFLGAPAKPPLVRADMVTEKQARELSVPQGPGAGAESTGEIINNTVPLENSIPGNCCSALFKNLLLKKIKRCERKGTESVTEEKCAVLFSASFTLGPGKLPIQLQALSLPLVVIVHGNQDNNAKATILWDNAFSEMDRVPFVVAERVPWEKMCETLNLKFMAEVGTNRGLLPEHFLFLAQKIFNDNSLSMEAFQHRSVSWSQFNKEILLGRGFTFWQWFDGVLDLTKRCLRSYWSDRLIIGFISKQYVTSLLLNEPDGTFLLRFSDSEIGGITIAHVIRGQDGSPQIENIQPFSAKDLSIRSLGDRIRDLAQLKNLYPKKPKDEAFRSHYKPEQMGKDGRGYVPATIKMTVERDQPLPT
Solvent-corrected, reference-subtracted and blank-corrected data was processed and binding isotherms were fitted according to a single report point from each sensorgram (Standard: Late binding (5 sec. before injection end); alternative: Earlier report point according to binding profile). Data fitting was done both with unfixed Rmax and with Rmax fixed to the theoretical value* assuming 1:1 binding to allow processing of data from both weak and strong binders as well as to evaluate binding stoichiometry.
Positive controls were run at the beginning, during, and at the end of the screen to evaluate surface activity.
In general terms: In SPR one partner is held on a chip, and binding of the other changes the refractive index at the surface.
By Kd is commonly meant the constant that tells how readily two partners part at equilibrium. Take `Cc1cc(C(=O)N(C)C)ccc1C1CCN([C@@H](C)c2cc3c(-c4ccc(N)cn4)ccnc3n2C)CC1` [Example 1af17, (S)-4-(1-(1-(4-(5-aminopyridin-2-yl)-1-methyl-1H-pyrrolo[2,3-b]pyridin-2-yl)ethyl)piperidin-4-yl)-N,N,3-trimethylbenzamide]: the Kd was 6400 nM. The result for `C[C@@H](c1cc2c(-c3ccc(N)cn3)ccnc2n1C)N1CC=C(c2ccc(C(=O)N(C)C)cc2)CC1` [Example 1af19, (S)-4-(1-(1-(4-(5-Aminopyridin-2-yl)-1-methyl-1H-pyrrolo[2,3-b]pyridin-2-yl)ethyl)-1,2,3,6-tetrahydropyridin-4-yl)-N,N-dimethylbenzamide] reads 2360 nM; that for `C[C@@H](c1cc2c(-c3ccc(N)nc3C#N)ccnc2n1C)N1CC=C(c2ccc(C(=O)N(C)C)cc2)CC1` [Example 1af21, (S)-4-(1-(1-(4-(6-amino-2-cyanopyridin-3-yl)-1-methyl-1H-pyrrolo[2,3-b]pyridin-2-yl)ethyl)-1,2,3,6-tetrahydropyridin-4-yl)-N,N-dimethylbenzamide], 8660 nM. The result for `C[C@H](c1cc2c(-c3ccc(N)nc3C#N)ccnc2n1C)N1CC=C(c2ccc(C(=O)N(C)C)cc2)CC1` [Example 1af23, (R)-4-(1-(1-(4-(6-amino-2-cyanopyridin-3-yl)-1-methyl-1H-pyrrolo[2,3-b]pyridin-2-yl)ethyl)-1,2,3,6-tetrahydropyridin-4-yl)-N,N-dimethylbenzamide] reads 45.2 nM. Turning to `[2H]C([2H])([2H])N(C(=O)c1ccc(C2=CCN([C@@H](C)c3cc4c(-c5ccc(N)nc5C#N)ccnc4n3C)CC2)c(C)c1)C([2H])([2H])[2H]` [Example 1af25, (S)-4-(1-(1-(4-(6-amino-2-cyanopyridin-3-yl)-1-methyl-1H-pyrrolo[2,3-b]pyridin-2-yl)ethyl)-1,2,3,6-tetrahydropyridin-4-yl)-3-methyl-N,N-bis(methyl-d3)benzamide], the Kd is 361 nM. Take `Cc1cc(C(=O)N(C)C)ccc1C1CCN([C@@H](C)c2cc3c(-c4ccc(N)nc4C#N)ccnc3n2C)CC1` [Example 1af27, (S)-4-(1-(1-(4-(6-Amino-2-cyanopyridin-3-yl)-1-methyl-1H-pyrrolo[2,3-b]pyridin-2-yl)ethyl)piperidin-4-yl)-N,N,3-trimethylbenzamide]: the Kd was determined as 66.5 nM. In the case of `Cc1cc(C(=O)N(C)C)ccc1C1CCN([C@H](C)c2cc3c(-c4ccc(N)nc4C#N)ccnc3n2C)CC1` [Example 1af28, (R)-4-(1-(1-(4-(6-amino-2-cyanopyridin-3-yl)-1-methyl-1H-pyrrolo[2,3-b]pyridin-2-yl)ethyl)piperidin-4-yl)-N,N,3-trimethylbenzamide], the Kd was found to be 5310 nM. To `[2H]C([2H])([2H])N(C(=O)c1ccc(C2CCN([C@@H](C)c3cc4c(-c5ccc(N)nc5C#N)ccnc4n3C)CC2)cc1)C([2H])([2H])[2H]` [Example 1af29, (S)-4-(1-(1-(4-(6-Amino-2-cyanopyridin-3-yl)-1-methyl-1H-pyrrolo[2,3-b]pyridin-2-yl)ethyl)-piperidin-4-yl)-N,N-bis(methyl-d3)benzamide] belongs 645 nM; to `[2H]C([2H])([2H])N(C(=O)c1ccc(C2CCN([C@H](C)c3cc4c(-c5ccc(N)nc5C#N)ccnc4n3C)CC2)cc1)C([2H])([2H])[2H]` [Example 1af30, (R)-4-(1-(1-(4-(6-amino-2-cyanopyridin-3-yl)-1-methyl-1H-pyrrolo[2,3-b]pyridin-2-yl)ethyl)piperidin-4-yl)-N,N-bis(methyl-d3)benzamide], 24.1 nM; to `[2H]C([2H])([2H])N(C(=O)c1ccc(C2=CCN([C@@H](C)c3cc4c(-c5ccc(N)cn5)ccnc4n3C)CC2)c(C)c1)C([2H])([2H])[2H]` [Example 1af31, (S)-4-(1-(1-(4-(5-aminopyridin-2-yl)-1-methyl-1H-pyrrolo[2,3-b]pyridin-2-yl)ethyl)-1,2,3,6-tetrahydropyridin-4-yl)-3-methyl-N,N-bis(methyl-d3)benzamide], 169 nM. Take `Cc1cc(C(=O)N(C)C)ccc1C1=CCN([C@@H](C)c2cc3c(-c4ccc(N)cn4)ccnc3n2C)CC1` [Example 1af32, (S)-4-(1-(1-(4-(5-Aminopyridin-2-yl)-1-methyl-1H-pyrrolo[2,3-b]pyridin-2-yl)ethyl)-1,2,3,6-tetrahydropyridin-4-yl)-N,N,3-trimethylbenzamide]: the Kd stood at 286 nM.

Turning to `[2H]C([2H])([2H])N(C(=O)c1ccc(C2=CCN([C@H](C)c3cc4c(-c5ccc(N)cn5)ccnc4n3C)CC2)c(C)c1)C([2H])([2H])[2H]` [Example 1af33, (R)-4-(1-(1-(4-(5-aminopyridin-2-yl)-1-methyl-1H-pyrrolo[2,3-b]pyridin-2-yl)ethyl)-1,2,3,6-tetrahydropyridin-4-yl)-3-methyl-N,N-bis(methyl-d3)benzamide], the Kd stood at 15.4 nM. Take `Cc1cc(C(=O)N(C)C)ccc1C1=CCN([C@H](C)c2cc3c(-c4ccc(N)cn4)ccnc3n2C)CC1` [Example 1af34, (R)-4-(1-(1-(4-(5-aminopyridin-2-yl)-1-methyl-1H-pyrrolo[2,3-b]pyridin-2-yl)ethyl)-1,2,3,6-tetrahydropyridin-4-yl)-N,N,3-trimethylbenzamide]: the Kd worked out at 18.6 nM. To `[2H]C([2H])([2H])N(C(=O)c1ccc(C2CCN([C@@H](C)c3cc4c(-c5ccc(N)cn5)ccnc4n3C)CC2)cc1)C([2H])([2H])[2H]` [Example 1af35, (S)-4-(1-(1-(4-(5-Aminopyridin-2-yl)-1-methyl-1H-pyrrolo[2,3-b]pyridin-2-yl)-ethyl)piperidin-4-yl)-N,N-bis(methyl-d3)benzamide] belongs 605 nM.

For `[2H]C([2H])([2H])N(C(=O)c1ccc(C2CCN([C@H](C)c3cc4c(-c5ccc(N)nc5C#N)ccnc4n3C)CC2)c(C)c1)C([2H])([2H])[2H]` [Example 1af38, (R)-4-(1-(1-(4-(6-amino-2-cyanopyridin-3-yl)-1-methyl-1H-pyrrolo[2,3-b]pyridin-2-yl)ethyl)-piperidin-4-yl)-3-methyl-N,N-bis(methyl-d3)benzamide], the Kd worked out at 5270 nM.

As to `[2H]C([2H])([2H])N(C(=O)c1ccc(C2CCN([C@@H](C)c3cc4c(-c5ccc(N)cn5)ccnc4n3C)CC2)c(C)c1)C([2H])([2H])[2H]` [Example 1af41, (S)-4-(1-(1-(4-(5-Aminopyridin-2-yl)-1-methyl-1H-pyrrolo[2,3-b]pyridin-2-yl)ethyl)-piperidin-4-yl)-3-methyl-N,N-bis(methyl-d3)benzamide], the Kd turned out to be 3300 nM. Turning to `[2H]C([2H])([2H])N(C(=O)c1ccc(C2=CCN([C@@H](C)c3cc4c(-c5ccc(N)cn5)ccnc4n3C)CC2)cc1)C([2H])([2H])[2H]` [Example 1af43, (S)-4-(1-(1-(4-(5-Aminopyridin-2-yl)-1-methyl-1H-pyrrolo[2,3-b]pyridin-2-yl)ethyl)-1,2,3,6-tetrahydropyridin-4-yl)-N,N-bis(methyl-d3)benzamide], the Kd came out at 2950 nM.

For the compound `CNC(=O)c1ccc(-c2ccnc3c2cc(CN2CCN(c4ccc(C(=O)N(C)C)cc4)CC2)n3C)cc1` [Example 1j6, 4-[2-[[4-[4-(Dimethylcarbamoyl)phenyl]piperazin-1-yl]methyl]-1-methyl-pyrrolo[2,3-b]pyridin-4-yl]-N-methyl-benzamide], the Kd was 37200 nM.

For the compound `CNC(=O)c1ccc(-c2ccnc3c2cc(CN2CCC(c4ccc(C(=O)N(C)C)cc4)CC2)n3C)cc1` [Example 1j7, 4-[2-[[4-[4-(Dimethylcarbamoyl)phenyl]-1-piperidyl]methyl]-1-methyl-pyrrolo[2,3-b]pyridin-4-yl]-N-methyl-benzamide], the Kd is 3450 nM. Take `CN(C)C(=O)c1ccc(C2CCN(Cc3cc4c(-c5ccc(N)c(C(=O)C(=O)O)c5)ccnc4n3C)CC2)cc1` [Example 1j13, 2-(2-Amino-5-(2-((4-(4-(dimethylcarbamoyl)phenyl)piperidin-1-yl)methyl)-1-methyl-1H-pyrrolo[2,3-b]pyridin-4-yl)phenyl)-2-oxoacetic acid]: the Kd was 12.8 nM. On to `CC(=O)Nc1ccc(-c2ccnc3c2cc(CN2CCC(c4ccc(C(=O)N(C)C)cc4)CC2)n3C)cn1` [Example 1k2, 4-[1-[[4-(6-Acetamido-3-pyridyl)-1-methyl-pyrrolo[2,3-b]pyridin-2-yl]methyl]-4-piperidyl]-N,N-dimethyl-benzamide], for which the Kd was determined as 64 nM. To `CN(C)C(=O)c1ccc(C2CCN(Cc3cc4c(-c5cnc(N)cn5)ccnc4n3C)CC2)cc1` [Example 1k8, 4-[1-[[4-(5-Aminopyrazin-2-yl)-1-methyl-pyrrolo[2,3-b]pyridin-2-yl]methyl]-4-piperidyl]-N,N-dimethyl-benzamide] belongs 457 nM; to `CN(C)C(=O)c1ccc(C2CCN(Cc3cc4c(-c5cnc(N)c(C(=O)O)c5)ccnc4n3C)CC2)cc1` [Example 1k9, 2-Amino-5-[2-[[4-[4-(dimethylcarbamoyl)phenyl]-1-piperidyl]methyl]-1-methyl-pyrrolo[2,3-b]pyridin-4-yl]pyridine-3-carboxylic acid], 144 nM. On to `COC(=O)c1cc(-c2ccnc3c2cc(CN2CCC(c4ccc(C(=O)N(C)C)cc4)CC2)n3C)cnc1N` [Example 1k10, Methyl 2-amino-5-[2-[[4-[4-(dimethylcarbamoyl)phenyl]-1-piperidyl]methyl]-1-methyl-pyrrolo[2,3-b]pyridin-4-yl]pyridine-3-carboxylate], for which the Kd is 2630 nM.
